Test results as given in patent publication US20210269815A1, “GENETICALLY MODIFIED PLANT AND USES THEREOF” (IST AUSTRIA, priority 2018, published 2021).

What was measured:
Type in all cases: in vivo, Arabidopsis
SYAC1 promoter = assay: pSYAC1:GUS / pSYAC1:nlsGFP reporter expression in roots
Procedure: The syac1-1 (salk_151420C, Col-0, KAN^R) and syac1-2 (salk_151662B, Col-0, KAN^R) T-DNA insertion lines were obtained from the Salk Institute. The syac1-3 (GABI-KAT 760F05, Col-0, SUL^R) and syac1-4 (GABI-KAT 961C03, Col-0, SUL^R) T-DNA insertion lines were obtained from the GABI KAT seed collection. The syac1-5 CRISPR line was prepared in collaboration with the VBCF Protein Technologies Facility (www.vbcf.ac.at) (see below). The genetically modified fluorescent-protein marker lines in Col-0 background have been described elsewhere: mCherry tagged wave line 6, 9, 13, 18, 25, 29, 34, 127, 129, 131, 138 (Geldner et al., 2009, Plant J. 59, 169-178), SYP61:SYP61-CFP (Drakakaki et al., 2012, Cell Res. 22, 413-424). The echidna mutant has been described in (Gendre et al., 2011, PNAS 108, 8048-8053) and yip4a-2 yip4b-1 in (Gendre et al., 2013, The Plant Cell 25, 2633-2646). Seeds of Arabidopsis were plated and grown on square plates with solid half strength Murashige and Skoog (MS) medium (Duchefa) supplemented with 0.5 g L^−1 MES, 10 g L^−1 Sucrose, 1% agar and pH adjusted to 5.9. The plates were incubated at 4° C. for 48 h to synchronize seed germination and then vertically grown under a 16:8 h day/night cycle photoperiod at 21° C. Cytokinin and auxin treatments were performed with the N6-benzyladenine cytokinin derivative (Sigma) and Naphthaleneacetic acid (Sigma), respectively. Short treatments (6 hours) for GUS/GFP expression were performed with 10 μM cytokinin and 1 μM auxin (unless indicated differently). For root growth transient assay 0.1 μM cytokinin and 0.05 μM auxin was used. Estradiol treatment was performed with β-Estradiol (Sigma).
For promoter analysis of SYAC1, an upstream sequence of 2522 bp was amplified by PCR and introduced into the pDONRP4-P1R entry vector. Then transcriptional lines (pSYAC1:GUS, pSYAC1:nlsGFP) were created: for pSYAC1:GUS, an LR reaction with SYAC1 promoter in pDONORP4-P1R, pEN-L1-S-L2,0 and pK7m24GW,0 vectors was performed. For pSYAC1:nlsGFP line, an LR reaction with SYAC1 promoter in pDONORP4-P1R, pEN-L1-NF-L2,0 and pB7m24GW,0 was performed. […]

[1] = system: root tip of wild type control plants; assay: Effect of excess copper on the primary root of seedlings grown on agar; details: 5 days on normal media, then transferred to media containing 50 μM CuSO4
Procedure: Plants were grown for 5 days on normal AM+ media and then transferred to media containing 50 μM CuSO4.

SYAC1 expression = assay: Genome wide transcriptome profiling of roots exposed to auxin, cytokinin and both hormones; details: 3 hours of treatment, 1 μM auxin, 10 μM cytokinin
Procedure: The syac1-1 (salk_151420C, Col-0, KAN^R) and syac1-2 (salk_151662B, Col-0, KAN^R) T-DNA insertion lines were obtained from the Salk Institute. The syac1-3 (GABI-KAT 760F05, Col-0, SUL^R) and syac1-4 (GABI-KAT 961C03, Col-0, SUL^R) T-DNA insertion lines were obtained from the GABI KAT seed collection. The syac1-5 CRISPR line was prepared in collaboration with the VBCF Protein Technologies Facility (www.vbcf.ac.at) (see below). The genetically modified fluorescent-protein marker lines in Col-0 background have been described elsewhere: mCherry tagged wave line 6, 9, 13, 18, 25, 29, 34, 127, 129, 131, 138 (Geldner et al., 2009, Plant J. 59, 169-178), SYP61:SYP61-CFP (Drakakaki et al., 2012, Cell Res. 22, 413-424). The echidna mutant has been described in (Gendre et al., 2011, PNAS 108, 8048-8053) and yip4a-2 yip4b-1 in (Gendre et al., 2013, The Plant Cell 25, 2633-2646). […]
To search for novel molecular components and mechanisms of auxin-cytokinin cross-talk, genome wide transcriptome profiling of roots exposed to auxin, cytokinin and both hormones simultaneously, was performed. […] This SYAC1 expression profile in roots was further validated by quantitative real-time (RT-qPCR) (FIG. 2A). […]

SMILES: NC1(C(=O)O)CC1 [ACC, 1-aminocyclopropane-1-carboxylic acid]
- enhancement of pSYAC1:GUS expression (SYAC1 promoter; roots treated with ACC only or in combination with cytokinin, auxin or both): No enhancement

SMILES: O=S(=O)([O-])[O-].[Cu+2] [CuSO4]
- SYAC1 promoter-driven GUS expression in reporter lines (SYAC1 promoter; 50 μM CuSO4 in ½MS plus Agar substrate): able to trigger
- swelling of cells at the root tip [1]: trigger swelling of cells at the root tip

SMILES: O=C(O)Cc1cccc2ccccc12 [auxin, Naphthaleneacetic acid]
- SYAC1 expression compared to an untreated control (SYAC1 expression): 2.47±0.20

SMILES: c1ccc(CNc2ncnc3nc[nH]c23)cc1 [cytokinin, N6-benzyladenine]
- SYAC1 expression compared to an untreated control (SYAC1 expression): 1.53±0.19
- pSYAC1 reporter signal (pSYAC1:GUS, pSYAC1:nlsGFP) (SYAC1 promoter; roots, 6 hours exposure): enhanced reporter signal in the quiescent center (QC) and columella initials (CI)
